Experimental data as given in US20240383942A1, “WATER-SOLUBLE ALLOPR[…], AND PREPARATION METHOD THEREFOR AND USE THEREOF” (NANJING MINOVA PHARMACEUTICAL CO., LTD., priority 2021, published 2024).
Structures can show the parent of a compound that is named as a salt.

Key:
[1] = In vitro metabolic study in human liver microsome incubation system; settings: for Concentration of the compound to be tested (parent): human liver microsomes 0.5 mg protein/mL, NADPH, 37° C.
Description: Instruments, conditions and parameters: liquid chromatography-mass spectrometry system (LC/MS/MS, Shimadzu LC 30-AD, MS API 4000); the chromatographic column was ACQUITY UPLC BEH C18 column (1.7 μm 2.1×50 mm Column, Part No. 186002350); the mobile phase was acetonitrile-water-formic acid (50:50:0.1); the flow rate was 0.7 mL/min; the injection volume was 5μL; the column temperature was room temperature. An electrospray ionization (ESI) source was adopted with a spray voltage of 4.8 KV; the capillary temperature (TEM) was 300° C.; the sheath gas was N2, and the flow rate was 10 psi; the auxiliary gas was N2, and the flow rate was 1 psi; the collision-induced dissociation (CID) gas was Ar, and the pressure was 1.5 mTorr. The mass spectrometry scan mode was mass spectrometry multiple reaction monitoring (MRM), and the positive ion mode was used for detection.
About 10 mg of each of the samples to be tested was precisely weighed out and dissolved in 0.1 mL of DMSO, and the solution was stepwise diluted with purified water to prepare 10 μM and 1 μM standard stock solutions. In an ice bath, the detection incubation system was prepared according to Table 3. NADPH was added to the incubation system (see Table 4 for its composition) to start a reaction, and 50 μL of the resulting mixture was taken immediately and added to 150 μL of acetonitrile as a time-zero sample and a 1 μM standard curve sample. Another 1 μM standard stock solution was added to the incubation system, and 50 μL of the resulting mixture was taken immediately and added to 150 μL of acetonitrile as a 0.1 μM standard curve sample. […] Each sample was shaken and centrifuged at 18,000 g for 10 min, and a sample of the supernatant was taken and injected for LC/MS/MS analysis.

hERG potassium channel = hERG potassium channel (Homo sapiens, UniProt Q12809); test: Manual patch clamp assay of hERG potassium channel current in CHO-hERG cells
Sequence of hERG potassium channel (Q12809 whole entry): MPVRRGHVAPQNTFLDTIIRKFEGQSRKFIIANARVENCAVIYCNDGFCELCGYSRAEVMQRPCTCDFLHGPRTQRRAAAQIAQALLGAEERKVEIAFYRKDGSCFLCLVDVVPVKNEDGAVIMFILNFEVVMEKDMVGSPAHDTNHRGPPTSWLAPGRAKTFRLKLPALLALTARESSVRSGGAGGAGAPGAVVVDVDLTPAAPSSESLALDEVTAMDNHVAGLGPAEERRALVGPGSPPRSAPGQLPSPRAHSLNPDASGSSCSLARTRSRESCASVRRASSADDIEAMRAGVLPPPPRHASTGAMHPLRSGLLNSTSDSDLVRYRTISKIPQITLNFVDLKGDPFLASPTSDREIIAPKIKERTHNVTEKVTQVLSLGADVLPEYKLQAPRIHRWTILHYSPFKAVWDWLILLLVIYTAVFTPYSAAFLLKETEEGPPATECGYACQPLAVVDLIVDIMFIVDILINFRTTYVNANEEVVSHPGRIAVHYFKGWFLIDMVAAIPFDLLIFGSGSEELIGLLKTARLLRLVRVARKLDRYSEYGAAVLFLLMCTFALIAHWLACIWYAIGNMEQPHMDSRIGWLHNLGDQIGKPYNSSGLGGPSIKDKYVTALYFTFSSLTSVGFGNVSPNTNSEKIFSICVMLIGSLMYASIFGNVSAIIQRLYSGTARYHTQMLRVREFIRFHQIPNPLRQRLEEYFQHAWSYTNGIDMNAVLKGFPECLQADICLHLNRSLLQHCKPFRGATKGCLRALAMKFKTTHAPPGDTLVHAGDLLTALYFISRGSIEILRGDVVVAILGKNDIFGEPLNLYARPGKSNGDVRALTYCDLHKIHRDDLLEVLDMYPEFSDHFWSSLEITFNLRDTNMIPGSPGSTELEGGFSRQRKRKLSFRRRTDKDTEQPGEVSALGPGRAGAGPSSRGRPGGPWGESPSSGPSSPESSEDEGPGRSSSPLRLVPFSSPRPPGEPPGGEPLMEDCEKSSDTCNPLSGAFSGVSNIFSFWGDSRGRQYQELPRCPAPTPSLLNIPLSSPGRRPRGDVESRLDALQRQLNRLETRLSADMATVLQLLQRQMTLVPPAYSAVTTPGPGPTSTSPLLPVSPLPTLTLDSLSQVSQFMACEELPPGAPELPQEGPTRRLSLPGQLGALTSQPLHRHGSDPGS
Description: The manual patch clamp method was used to measure the effect of the compounds on hERG potassium channel current stably expressed in Chinese hamster ovary cells.
Manual patch clamp assay method:
CHO-hERG cells in the exponential growth phase were collected and resuspended in ECS (extracellular solution) for later use. The cells were seeded in a cell recording chamber, and the chamber was placed on the stage of an inverted microscope. One of the cells in the tank was randomly selected for testing. The perfusion system was fixed onto the stage of the inverted microscope, and the cell was perfused continuously with ECS. […]
The clamping voltage was −80 mV. […] The peak value of the tail current was measured and used for analysis. […] In the initial stage of recording the perfusion with the solvent control working solution, the peak value of the tail current was monitored until 3 or more scanning curves were stabilized, and then perfusion was performed with the test sample/positive control working solution to be tested until the inhibitory effect of the test sample/positive control working solution on the peak value of the hERG current reached a stable state.
The hERG current was recorded under the whole cell patch clamp technology at room temperature. […] Data were collected and recorded by Patchmaster Pro software and processed using Origin 8E software, and hERG IC50 values were calculated.

[2] = Saturation solubility by external standard HPLC method; type: physicochemical; settings: thermodynamic from solid; purified water, 25° C., stirred 24 h
Description: Preparation of an external standard solution: 50 mg of a compound to be tested was precisely weighed out, added to a 10 mL volumetric flask, and dissolved in a proper amount of purified water by ultrasonication. The solution was diluted to volume and mixed well to give an external standard solution with a concentration of 5.0 mg/mL.
The solution was stirred for dissolution for 24 h at 25° C. and centrifuged. The supernatant was taken and filtered through a 0.45 μm filter membrane, and the filtrate was collected. 1 mL of the filtrate described above was precisely measured out and added to a 5 mL measuring flask. Purified water was added to dilute the filtrate to volume, and the solution was mixed well to give a solution to be tested.
2. Determination of Saturation Solubility by External Standard Method
Chromatographic Conditions
Chromatographic column: Waters XBridge C8 3.5 μm 4.6×100 mm NRT2019-21#, column temperature: 45° C., detection wavelength: 205 nm;
Mobile phase A: a 10 mM/L (NH4)2HPO4 solution, mobile phase B: acetonitrile, isocratic elution A:B=40:60, flow rate: 1.0 mL/min;
Injection volume: 10 μL, run time: 10 min.
Purified water was used as a blank control solution, and the peak areas of the external standard solution and the standard solution were measured using a high performance liquid chromatograph with a UV detector and denoted as Aexternal standard and Ato be tested, respectively.

[3] = in the human body; cited from earlier work

SMILES	Concentration of the compound to be tested (parent) ([1]; incubation time 0 min) [nM]	Concentration of the compound to be tested (parent) ([1]; incubation time 5 min) [nM]	Concentration of the compound to be tested (parent) ([1]; incubation time 15 min) [nM]	Concentration of the compound to be tested (parent) ([1]; incubation time 30 min) [nM]	Concentration of the compound to be tested (parent) ([1]; incubation time 45 min) [nM]	Concentration of the compound to be tested (parent) ([1]; incubation time 60 min) [nM]	IC50 (hERG potassium channel) [nM]	solubility at 24 h [2] [mg/mL]	concentration of allopregnanolone resulting from metabolism reaching a stable level (in words) ([1]; liver microsome system)	plasma half-life [3]
[2H]C(C)(C)[C@H](N)C(=O)O[C@@H]1CC[C@@]2(C)[C@@H](CC[C@@H]3[C@@H]2CC[C@]2(C)[C@@H](C(C)=O)CC[C@@H]32)C1 [Compound 1]	1000	956	874	575	423	352	1930			
[2H]C(N)(C(=O)O[C@@H]1CC[C@@]2(C)[C@@H](CC[C@@H]3[C@@H]2CC[C@]2(C)[C@@H](C(C)=O)CC[C@@H]32)C1)C(C)C (stereo partly drawn) [Compound 3 hydrochloride]								19		
[2H]C([2H])([2H])C([C@H](N)C(=O)O[C@@H]1CC[C@@]2(C)[C@@H](CC[C@@H]3[C@@H]2CC[C@]2(C)[C@@H](C(C)=O)CC[C@@H]32)C1)C([2H])([2H])[2H] [Compound 2 hydrochloride]								36.1		
C[C@]12CC[C@H]3[C@@H](CCC4=CC(=O)CC[C@@]43C)[C@@H]1CC[C@@H]2O [Testosterone, testosterone]	1000	677	379	155	63	44				
O=C(O)Cc1ccccc1Nc1c(Cl)cccc1Cl [Diclofenac, diclofenac]	1000	374	77	8	1	1				
[2H]C(C)(C)[C@H](N)C(=O)O[C@@H]1CC[C@@]2(C)[C@@H](CC[C@@H]3[C@@H]2CC[C@]2(C)[C@@H](C(C)=O)CC[C@@H]32)C1 [Compound 1 hydrochloride]								31.2		
CC(=O)[C@H]1CC[C@H]2[C@@H]3CC[C@H]4C[C@H](OC(=O)[C@@H](N)C(C)C)CC[C@]4(C)[C@H]3CC[C@]12C [Comparative compound 1]	1000	801	680	484	306	256	770		unable to achieve a stable level	
CC(=O)[C@H]1CC[C@H]2[C@@H]3CC[C@H]4C[C@H](OC(=O)[C@@H](N)C(C)C)CC[C@]4(C)[C@H]3CC[C@]12C [Comparative compound 1 hydrochloride]								29.9		
CC(=O)[C@H]1CC[C@H]2[C@@H]3CC[C@H]4C[C@H](O)CC[C@]4(C)[C@H]3CC[C@]12C [Allopregnanolone, 3α-OH-5α-pregnan-20-one]	1000	626	414	259	150	119		< 0.01		about 45 minutes
